# Patent US5622965A, “4-hydroxy-3-nitro-1,2-dihydroquinolin-2-ones and the use thereof as excitatory amino acid and glycine receptor antagonists” (priority 1993, dated 1997)
# Like-named read-outs stand apart in the source and are kept apart here.
# Tests used:
# [1] = system: glycine binding site of the NMDA receptor; settings: cited from earlier work
# [2] = cited from earlier work
# neurons = settings: in words; cited from earlier work
# rodents = settings: in words; cited from earlier work
# pigeons = settings: in words; cited from earlier work
# glycine/NMDA receptor = assay: 1 μM glycine-stimulated [3H]-MK801 binding assay (glycine/NMDA receptor); parameters: species or system rat; settings: for potency relative to 5,7-dichlorokynurenic acid (DCK): % of DCK; for Ki: glycine/NMDA receptor binding
# Experimental: This assay takes advantage of the fact that the binding of [^3 H]-MK801 to the PCP receptor inside the pore of the NMDA channel is dependent on the presence of both glutamate and glycine. In the absence of glycine but in the presence of glutamate, [^3 H]-MK801 cannot bind effectively to the PCP receptor, because the NMDA channel remains closed and access of [^3 H]-MK801 to the PCP receptor inside the closed channel pore is severely restricted.
# The assay is conducted using rat brain membrane homogenates which are enriched in NMDA receptors. The membranes are prepared as follows. Frozen rat brains obtained from Pel-Freez, Rogers, Arkansas) are homogenized in 15 volumes (w/v) of ice cold 0.32M sucrose. The homogenate is spun at 1,000×g for ten minutes. The supernatant is collected and spun for 20 minutes at 44,000×g. The pellet is suspended in 15 volumes of water (relative to original brain weight). The homogenate is again spun at 44,000×g for twenty minutes. The pellet is resuspended in 5 volumes of water and the suspension is freeze-thawed 2 times. After the final thaw cycle, the suspension is brought to 15 volumes with water and spun at 44,000×g for twenty minutes. The pellet is resuspended in 5 volumes of ice-cold 10 mM HEPES, and is titrated to pH 7.4 with KOH containing 0.04% Triton X-100. Membranes are incubated with the Triton/HEPES buffer at 37° C. for 15 minutes. The volume is then brought to 15 with ice-cold 10 mM HEPES, pH 7.4, and spun/washed three times with spins of 44,000×g between washes. The final pellet is suspended in three volumes of 50 mM HEPES, pH 7.4 and the protein concentration is determined with a standard dye-binding protein assay (Bio-Rad, Richmond, Calif.). The suspension is stored at-80° C. until used. Only HPLC grade water is used for all buffers and suspensions/washings. The extensive washings are necessary to remove as much endogenous glycine from the membrane preparation as possible.
# Nonspecific binding is defined as the […] presence of PCP (final concentration: 100 μM). To determine the effect of 1 μM glycine on the binding of [3H]-MK801, bound radioactivity in the presence of 10 μM glutamate alone (final concentration) is subtracted from the bound radioactivity in the presence of both 10 μM glummate and 1 μM glycine (final concentration). A 500 nM concentration (final) of 5,7-dichlorokynurenic (DCK) acid is added to all assay tubes. This concentration of the glycine antagonist DCK "buffers" most of the residual endogenous glycine that is not removed by the extensive washing steps that are carried out during the membrane preparation procedure.
# The assays are incubated for 120 minutes at room temperature after which time the membrane-bound radioactivity is isolated from the free radioactivity by vacuum filtration through Whatman glass fiber filters that had been pretreated with 0.3% polyethyleneimine. Filtration is accomplished using a Brandel 48 well cell harvester. Filtered membranes are washed three times with 3 ml each of ice cold buffer. Filters are transferred to scintillation vials and 5 ml of scintillation cocktail is added. The vials are shaken overnight and the radioactivity is counted by liquid scintillation spectroscopy. The assays are done in triplicate and all experiments are conducted at least three times.
# [3] = in words; cited from earlier work
# PCP receptor = settings: cited from earlier work
# glycine receptor = assay: binding to the glycine receptor (general statement); settings: in words
compound,measurement,setting,value
NC1CCN(O)C1=O (stereo not drawn) [HA-966],affinity for the glycine binding site,[1]; in words,micromolar affinity
same,mode of action at the glycine binding site,[1]; in words,partial agonist
same,blood/brain barrier penetration,[2]; in words,sufficiently penetrates the blood/brain barrier
"O=C(O)c1cc(O)c2c(Cl)cc(Cl)cc2n1 [5,7-dichlorokynurenic acid]",affinity for the glycine binding site,[1]; in words,relatively high receptor binding affinity
same,blood/brain barrier penetration,[2]; in vivo,cannot penetrate the blood/brain barrier
O=C(O)c1cc2ccccc2[nH]1 [indole-2-carboxylic acid],affinity for the glycine binding site,[1]; in words,relatively high receptor binding affinity
same,blood/brain barrier penetration,[2]; in words,cannot penetrate the blood/brain barrier
NCC(=O)O [glycine],Kd,"[1]; used in Cheng and Prusoff equation, read-out: known affinity of glycine for the glycine binding site",100 nM
O=C(O)C1CC2CC(CP(=O)(O)O)CCC2CN1 (stereo not drawn) [LY274614],neuroprotective efficacy,neurons,neuroprotective efficacy
"c1ccc(C2(N3CCCCC3)CCCCC2)cc1 [PCP, phencyclidine]",neuroprotective efficacy,neurons,neuroprotective efficacy both in vitro and in vivo
same,PCP-like behavioral effects in rodents / animal models,rodents,behavioral excitation (hyperlocomotion)
same,PCP-like behavioral effect in pigeons,pigeons,characteristic katalepsy
"O=c1[nH]c2cc(Cl)cc(Cl)c2[nH]c1=O [5,7-dichloro-QX]","potency relative to 5,7-dichlorokynurenic acid (DCK)",glycine/NMDA receptor,20%
O=C(O)[C@@H]1C[C@H](CP(=O)(O)O)CCN1 [CGS 19755],neuroprotective efficacy,neurons,neuroprotective efficacy
same,PCP-like behavioral side effects,[3],adverse PCP-like behavioral side effects
"O=c1[nH]c2cc(Cl)cc(Cl)c2c(O)c1[N+](=O)[O-] [Compound 16c, 5,7-dichloro-3-nitro-4-hydroxy-1,2-dihydroquinolin-2-one]","potency relative to 5,7-dichlorokynurenic acid (DCK)",glycine/NMDA receptor,19%
same,Ki,glycine/NMDA receptor,1400 nM
CNC1(c2ccccc2Cl)CCCCC1=O (stereo not drawn) [ketamine],neuroprotective efficacy,neurons,neuroprotective efficacy both in vitro and in vivo
O=C(O)c1cc(O)c2ccc(Cl)cc2n1 [7-Cl-kynurenic acid],affinity for the glycine binding site,[1]; in words,relatively high receptor binding affinity
same,blood/brain barrier penetration,[2]; in words,cannot penetrate the blood/brain barrier
C[C@]12N[C@H](Cc3ccccc31)c1ccccc12 [MK-801],Kd,PCP receptor,~3 nM
same,neuroprotective efficacy,neurons,neuroprotective efficacy both in vitro and in vivo
same,PCP-like behavioral side effects,[3],adverse PCP-like behavioral side effects
COc1ccc2c(c1)[C@]13CCCC[C@@H]1[C@H](C2)N(C)CC3 [dextromethorphan],neuroprotective efficacy,neurons,neuroprotective efficacy both in vitro and in vivo
"O=c1[nH]c2ccc([N+](=O)[O-])cc2c(O)c1[N+](=O)[O-] [Compound 16b, 3,6-Dinitro-4-hydroxy-1,2-dihydroquinolin-2-one]",activity relative to 16a,glycine/NMDA receptor; in words,about as active as 16a
"5,6-dichloro-3-nitro-4-hydroxy-1,2-dihydroquinolin-2-one [Compound 16f]",Ki,glycine/NMDA receptor,800 nM
"O=c1[nH]c2ccccc2c(O)c1[N+](=O)[O-] [Compound 16a, 3-Nitro-4-hydroxy-1,2-dihydroquinolin-2-one]","potency relative to 5,7-dichlorokynurenic acid (DCK)",glycine/NMDA receptor,1.4%
same,Ki,glycine/NMDA receptor,18000 nM
same,binding to the glycine receptor,glycine receptor,high binding
same,selectivity for the glycine receptor,glycine receptor,highly selective
